Test results from ChEMBL document CHEMBL1201862, “PubChem BioAssay data set” (2004).
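96-well plates; 48 h exposure; 5 concentrations. Endpoints by linear interpolation between flanking doses. Not reached: highest tested concentration assigned. GI50 marks 50% less growth.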 Calls of active or inactive are those of the source. Rule as the data show it: active = GI50 up to about 1.1 µM and inactive = higher.

Assays:
Assay in all cases: NCI anticancer screen, dose series, 48 h
[1] = system: OVCAR-5
[2] = system: SNB-75
[3] = system: SNB-19
[4] = system: UACC-62
[5] = system: COLO 205
[6] = system: SK-OV-3
[7] = system: CCRF-CEM
[8] = system: SF-268
[9] = system: A498
[10] = system: OVCAR-4
[11] = system: TK-10
[12] = system: HT-29
[13] = system: CAKI-1
[14] = system: NCI-H460
[15] = system: HCT-15
[16] = system: SR
[17] = system: HL-60

Compound | GI50 [1] | GI50 [2] | GI50 [3] | GI50 [4] | GI50 [5] | GI50 [6] | GI50 [7] | GI50 [8] | GI50 [9] | GI50 [10] | GI50 [11] | GI50 [12] | GI50 [13] | GI50 [14] | GI50 [15] [µM] | GI50 [16] | GI50 [17]
c1ccc(C(c2ccccc2)c2ccncc2)cc1 | > 100 µM (inactive) | 18 µM (inactive) | > 100 µM (inactive) | > 100 µM (inactive) | > 100 µM (inactive) | > 100 µM (inactive) | > 100 µM (inactive) | > 100 µM (inactive) | > 100 µM (inactive) | > 100 µM (inactive) | > 100 µM (inactive) | 75.9 µM (inactive) | > 100 µM (inactive) | > 100 µM (inactive) | > 100 |  | 
OC1(C(Sc2ccccc2)Sc2ccccc2)CCCCCC1 |  | 33.4 µM (inactive) | 14.1 µM (inactive) | 11.5 µM (inactive) | 23.6 µM (inactive) | 22.5 µM (inactive) | 25.2 µM (inactive) | 33.1 µM (inactive) | 34 µM (inactive) | 6.19 µM (inactive) | 58.2 µM (inactive) |  | 12.2 µM (inactive) | 28.2 µM (inactive) | 24.4 | 20.8 µM (inactive) | 24 µM (inactive)
Cc1cc(C)nc(NS(=O)(=O)c2ccc(Nc3c4ccccc4nc4c(C(=O)Nc5ccc(S(N)(=O)=O)cc5)cccc34)cc2)n1 | > 100 µM (inactive) | 25.8 µM (inactive) | 47 µM (inactive) | 66.1 µM (inactive) | > 100 µM (inactive) | 11.8 µM (inactive) | > 100 µM (inactive) | 50.9 µM (inactive) | 43.3 µM (inactive) | 85.5 µM (inactive) | > 10 µM (inactive) | > 100 µM (inactive) | > 100 µM (inactive) | 88.1 µM (inactive) | 47.1 |  | 
CC(C)(C)c1ccc(OCCOCCOc2ccc(C(C)(C)C)cc2S(=O)(=O)Nc2ccc([N+](=O)[O-])cc2)c(S(=O)(=O)Nc2ccc([N+](=O)[O-])cc2)c1 | > 100 µM (inactive) | 56.6 µM (inactive) | 76.4 µM (inactive) | 6.21 µM (inactive) | 21.8 µM (inactive) | > 100 µM (inactive) | 5.42 µM (inactive) | 8.45 µM (inactive) | 8.15 µM (inactive) | 33.7 µM (inactive) | 5.64 µM (inactive) | 7.38 µM (inactive) | 9.31 µM (inactive) | 8.85 µM (inactive) | 7.69 |  | 5.58 µM (inactive)
CC(=O)OC1CCC2C(=CCC3C2(C)C(=O)CC2(C)C(C4(C)OC(C(C)C)=CC4=O)C(O)CC32C)C1(C)C (centres undefined) | > 100 µM (inactive) | 28.4 µM (inactive) | > 100 µM (inactive) | 19.1 µM (inactive) | 56 µM (inactive) | 35.7 µM (inactive) | 31 µM (inactive) | 28.1 µM (inactive) | > 100 µM (inactive) |  |  | 17.8 µM (inactive) | 45 µM (inactive) | 27 µM (inactive) | 30.2 | 28.4 µM (inactive) | 
CC(O)C(NC(=O)c1ccccc1)C(=O)N(Cc1ccccc1)Cc1ccccc1 (centres undefined) | > 100 µM (inactive) | 47.5 µM (inactive) | > 100 µM (inactive) | > 100 µM (inactive) | > 100 µM (inactive) | > 100 µM (inactive) | > 100 µM (inactive) | > 100 µM (inactive) | 69.3 µM (inactive) | > 100 µM (inactive) | > 100 µM (inactive) | > 10 µM (inactive) | 18.2 µM (inactive) | > 100 µM (inactive) | > 100 |  | 18.9 µM (inactive)
CC(=O)OC12C(C)=C(C)C(=O)N1c1ccccc1N2C(C)=O (centres undefined) | > 100 µM (inactive) | > 100 µM (inactive) | > 100 µM (inactive) | > 100 µM (inactive) | > 100 µM (inactive) | > 100 µM (inactive) | > 100 µM (inactive) | > 100 µM (inactive) |  | > 100 µM (inactive) | > 100 µM (inactive) | > 100 µM (inactive) | > 100 µM (inactive) | > 100 µM (inactive) | > 100 | > 100 µM (inactive) | > 100 µM (inactive)
Cc1ccc(Sc2ccccc2N)cc1 | > 100 µM (inactive) | 44.8 µM (inactive) | 38.6 µM (inactive) | 53.2 µM (inactive) | 40 µM (inactive) | > 100 µM (inactive) | 23.2 µM (inactive) | 21 µM (inactive) | 30.8 µM (inactive) | 46.9 µM (inactive) | 70.5 µM (inactive) | 31.1 µM (inactive) | 21.6 µM (inactive) | 30.4 µM (inactive) | 37.8 |  | 18.9 µM (inactive)
Oc1cc2c(cc1O)-c1[nH]ncc1CC2 | 63.4 µM (inactive) | 16.6 µM (inactive) | 46.8 µM (inactive) | 27.8 µM (inactive) | 26.1 µM (inactive) | 22.5 µM (inactive) | 11.4 µM (inactive) | 25.6 µM (inactive) | 25.4 µM (inactive) |  | 75 µM (inactive) | 37.6 µM (inactive) | 33.6 µM (inactive) | 43.3 µM (inactive) | 54.1 | 27.8 µM (inactive) | 24.3 µM (inactive)
